Source: PMC6749325, “Hybrids of Cinchona Alkaloids and Bile Acids as Antiparasitic Agents Against Trypanosoma cruzi” (Molecules, 2019)
≈ marks a conversion by molar mass, not a printed value.

test system: NRK cells; test: NRK cell IC50 estimation (cytotoxicity, crystal violet); format: cell-based; conditions: 48 h incubation
Protocol: (§1) The NRK and Vero cell lines were routinely maintained in DMEM (Gibco) supplemented with 10% SFB (Natocor) and Penicillin/Streptomicin (100 Units/0.1mg/mL, Sigma) at 37 °C and 5% CO2 atmosphere. The trypomatigotes of T. cruzi strains CL Brener, Y, and RA were routinely maintained in Vero cells cultured in DMEM supplemented with 4% SFB and Penicillin/Streptomicin. The trypomastigotes of each strain were purified from infected Vero cells supernatants and used in the different assays.
1 × 10^5/mL NRK cells were grown overnight in a 96 multi-well plate. The culture medium was replaced by a culture medium containing increasing concentrations of hybrids, control drugs or vehicles, and cells incubated at 37 °C and 5% CO2 for 48 h. Next, cells were washed, fixed for 10 min with cold methanol (Sintorgan), and stained with violet crystal (Sigma 0.5% in methanol). After an exhaustive wash, cells were dried overnight. 10% acetic acid (Biopack) was added to each well, and the absorbance measured at 600 nm. Similarly, a standard curve was prepared (absorbance vs. increasing concentrations of NRK cells) to estimate the NRK IC50 using Graphpad Prism.

`C=CC1CN2CCC1CC2C(O)c1cc(CCC(C)C2CCC3C4CCC5CC(OC(C)=O)CCC5(C)C4CCC23C)nc2ccccc12` (centres unmarked) [Hybrid 4g] was tested. Which “NRK Cells IC50” value did it give?
The value was 12.30 ± 0.81 µg/mL.

How did the “NRK Cells IC50” value turn out when `C=CC1CN2CCC1CC2C(O)c1cc(CCC(C)C2CCC3C4CCC5CC(OC(C)=O)CCC5(C)C4CCC23C)nc2ccc(OC)cc12` (centres unmarked) [Hybrid 4c] was run?
Its value is 16.53 ± 0.18 µg/mL.

Which “NRK Cells IC50” value does the source give for `C=CC1CN2CCC1CC2C(O)c1cc(CCC(C)C2CCC3C4CCC5CC(O)CCC5(C)C4CCC23C)nc2ccccc12` (centres unmarked) [Hybrid 5g] here?
The value was 27.11 ± 4.54 µg/mL.

`C=CC1CN2CCC1CC2C(O)c1cc(CCC(C)C2CCC3C4CCC5CC(OC(C)=O)CCC5(C)C4CCC23C)nc2ccc(OC)cc12` (centres unmarked) [Hybrid 4a] was tested. Which “NRK Cells IC50” value did it give?
Its value is 1.41 ± 0.13 µg/mL.

same assay, conditions: Rattus norvegicus, NRK, 48 h, 48 h incubation

With `C=CC1CN2CCC1CC2C(O)c1cc(CCC(C)C2CCC3C4C(OC(C)=O)CC5CC(OC(C)=O)CCC5(C)C4CCC23C)nc2ccc(OC)cc12` (centres unmarked) [Hybrid 4b] as the molecule, how does the IC50 read?
The IC50 was 3.91 ± 0.29 µg/mL (≈ 5.18 µM).

Which IC50 does the source give for `C=CC1CN2CCC1CC2C(O)c1cc(CCC(C)C2CCC3C4CCC5CC(O)CCC5(C)C4CCC23C)nc2ccccc12` (centres unmarked) [Hybrid 5e] here?
The IC50 was over 30 µg/mL.

With `C=CC1CN2CCC1CC2C(O)c1cc(CCC(C)C2CCC3C4CCC5CC(OC(C)=O)CCC5(C)C4CCC23C)nc2ccccc12` (centres unmarked) [Hybrid 4e] as the molecule, how does the IC50 read?
The IC50 was 7.5 ± 0.29 µg/mL (≈ 11.2 µM).

With `C=CC1CN2CCC1CC2C(O)c1cc(CCC(C)C2CCC3C4CCC5CC(O)CCC5(C)C4CCC23C)nc2ccc(OC)cc12` (centres unmarked) [Hybrid 5c] as the molecule, how does the IC50 read?
The IC50 was over 11 µg/mL.

test system: T. cruzi CL Brener trypomastigotes; test: Trypomastigote IC50 estimation, CL Brener strain; format: cell-based, Trypanosoma cruzi; conditions: IC50NRK/IC50 parasite, CL Brener trypomastigotes
Protocol: as §1
(§2) 2 × 10^6/mL trypomastigotes were incubated with different concentrations of the hybrids, control drug or vehicle, by triplicate at 37 °C and 5% CO2 for 24 h. Next, trypomastigotes were counted in a Neubauer chamber. The IC50 ± SD (n = 3) were estimated using the “Dose–Response” module in Graphpad Prism.

With `C=CC1CN2CCC1CC2C(O)c1cc(CCC(C)C2CCC3C4C(OC(C)=O)CC5CC(OC(C)=O)CCC5(C)C4CCC23C)nc2ccc(OC)cc12` (centres unmarked) [Hybrid 4b] as the molecule, how does the “Selectivity NRK/T. cruzi (SI)” value read?
Its value is 4.89.

`C=CC1CN2CCC1CC2C(O)c1cc(CCC(C)C2CCC3C4CCC5CC(OC(C)=O)CCC5(C)C4CCC23C)nc2ccccc12` (centres unmarked) [Hybrid 4g] was tested. Which “Selectivity NRK/T. cruzi (SI)” value did it give?
The value was 9.46.

For `C=CC1CN2CCC1CC2C(O)c1cc(CCC(C)C2CCC3C4CCC5CC(OC(C)=O)CCC5(C)C4CCC23C)nc2ccc(OC)cc12` (centres unmarked) [Hybrid 4c], which “Selectivity NRK/T. cruzi (SI)” value is on record?
Its value is 15.30.

How did the “Selectivity NRK/T. cruzi (SI)” value turn out when `C=CC1CN2CCC1CC2C(O)c1cc(CCC(C)C2CCC3C4CCC5CC(OC(C)=O)CCC5(C)C4CCC23C)nc2ccccc12` (centres unmarked) [Hybrid 4e] was run?
The value was 6.46.

Which “Selectivity NRK/T. cruzi (SI)” value does the source give for `C=CC1CN2CCC1CC2C(O)c1cc(CCC(C)C2CCC3C4CCC5CC(O)CCC5(C)C4CCC23C)nc2ccccc12` (centres unmarked) [Hybrid 5g] here?
Its value is 10.58.

How did the “Selectivity NRK/T. cruzi (SI)” value turn out when `C=CC1CN2CCC1CC2C(O)c1cc(CCC(C)C2CCC3C4CCC5CC(OC(C)=O)CCC5(C)C4CCC23C)nc2ccc(OC)cc12` (centres unmarked) [Hybrid 4a] was run?
The value was 2.20.

same assay, conditions: Trypanosoma cruzi, 24 h, trypomastigotes, 24 h incubation, IC50 ± SD (n = 3)

How did the IC50 turn out when `C=CC1CN2CCC1CC2C(O)c1cc(CCC(C)C2CCC3C4C(OC(C)=O)CC5CC(OC(C)=O)CCC5(C)C4CCC23C)nc2ccc(OC)cc12` (centres unmarked) [Hybrid 4b] was run?
Its IC50 is 0.8 ± 0.13 µg/mL (≈ 1.06 µM).

For `C=CC1CN2CCC1CC2C(O)c1cc(CCC(C)C2CCC3C4CCC5CC(O)CCC5(C)C4CCC23C)nc2ccccc12` (centres unmarked) [Hybrid 5e], which IC50 is on record?
Its IC50 is 3.96 ± 2.69 µg/mL (≈ 6.34 µM).

`C=CC1CN2CCC1CC2C(O)c1cc(CCC(C)C2CCC3C4CCC5CC(OC(C)=O)CCC5(C)C4CCC23C)nc2ccc(OC)cc12` (centres unmarked) [Hybrid 4c] was tested. Which IC50 did it give?
The IC50 was 1.08 ± 0.23 µg/mL (≈ 1.55 µM).

For `C=CC1CN2CCC1CC2C(O)c1cc(CCC(C)C2CCC3C4CCC5CC(OC(C)=O)CCC5(C)C4CCC23C)nc2ccccc12` (centres unmarked) [Hybrid 4e], which IC50 is on record?
The IC50 was 1.16 ± 0.15 µg/mL (≈ 1.74 µM).

For `O=C(Cn1ccnc1[N+](=O)[O-])NCc1ccccc1` [Bz, benznidazole, reference compound], which IC50 is on record?
The IC50 was 2.5 ± 0.01 µg/mL (≈ 9.61 µM).

same assay, conditions: trypomastigotes, 24 h incubation, IC50 ± SD (n = 3)

`C=CC1CN2CCC1CC2C(O)c1cc(CCC(C)C2CCC3C4CCC5CC(OC(C)=O)CCC5(C)C4CCC23C)nc2ccccc12` (centres unmarked) [Hybrid 4g] was tested. Which “T. cruzi CL Brener IC50” value did it give?
The value was 1.30 ± 0.01 µg/mL.

How did the “T. cruzi CL Brener IC50” value turn out when `C=CC1CN2CCC1CC2C(O)c1cc(CCC(C)C2CCC3C4CCC5CC(O)CCC5(C)C4CCC23C)nc2ccccc12` (centres unmarked) [Hybrid 5g] was run?
Its value is 2.56 ± 0.58 µg/mL.

Which “T. cruzi CL Brener IC50” value does the source give for `C=CC1CN2CCC1CC2C(O)c1cc(CCC(C)C2CCC3C4CCC5CC(O)CCC5(C)C4CCC23C)nc2ccc(OC)cc12` (centres unmarked) [Hybrid 5c] here?
Its value is 0.78 ± 0.11 µg/mL.

With `C=CC1CN2CCC1CC2C(O)c1cc(CCC(C)C2CCC3C4CCC5CC(OC(C)=O)CCC5(C)C4CCC23C)nc2ccc(OC)cc12` (centres unmarked) [Hybrid 4a] as the molecule, how does the “T. cruzi CL Brener IC50” value read?
Its value is 0.64 ± 0.15 µg/mL.

test system: T. cruzi Y (DTU II) trypomastigotes; test: Trypomastigote IC50 estimation, Y strain; format: cell-based, Trypanosoma cruzi; conditions: Trypanosoma cruzi, 24 h, 24 h incubation
Protocol: as §1, §2

How did the IC50 turn out when `C=CC1CN2CCC1CC2C(O)c1cc(CCC(C)C2CCC3C4CCC5CC(OC(C)=O)CCC5(C)C4CCC23C)nc2ccccc12` (centres unmarked) [Hybrid 4g] was run?
Its IC50 is 3.05 ± 0.71 µg/mL (≈ 4.57 µM).

With `C=CC1CN2CCC1CC2C(O)c1cc(CCC(C)C2CCC3C4CCC5CC(OC(C)=O)CCC5(C)C4CCC23C)nc2ccc(OC)cc12` (centres unmarked) [Hybrid 4c] as the molecule, how does the IC50 read?
Its IC50 is at least 1 µg/mL.

How did the IC50 turn out when `C=CC1CN2CCC1CC2C(O)c1cc(CCC(C)C2CCC3C4CCC5CC(O)CCC5(C)C4CCC23C)nc2ccccc12` (centres unmarked) [Hybrid 5g] was run?
Its IC50 is 3.25 ± 0.67 µg/mL (≈ 5.2 µM).

Which IC50 does the source give for `C=CC1CN2CCC1CC2C(O)c1cc(CCC(C)C2CCC3C4CCC5CC(O)CCC5(C)C4CCC23C)nc2ccc(OC)cc12` (centres unmarked) [Hybrid 5c] here?
Its IC50 is at least 2 µg/mL.

How did the IC50 turn out when `O=C(Cn1ccnc1[N+](=O)[O-])NCc1ccccc1` [Bz, benznidazole, reference compound] was run?
The IC50 was at least 15 µg/mL.

test system: T. cruzi RA (DTU VI) trypomastigotes; test: Trypomastigote IC50 estimation, RA strain; format: cell-based, Trypanosoma cruzi; conditions: Trypanosoma cruzi, 24 h, 24 h incubation
Protocol: as §1, §2

`C=CC1CN2CCC1CC2C(O)c1cc(CCC(C)C2CCC3C4CCC5CC(OC(C)=O)CCC5(C)C4CCC23C)nc2ccccc12` (centres unmarked) [Hybrid 4g] was tested. Which IC50 did it give?
The IC50 was 1.1 ± 0.21 µg/mL (≈ 1.65 µM).

How did the IC50 turn out when `C=CC1CN2CCC1CC2C(O)c1cc(CCC(C)C2CCC3C4CCC5CC(O)CCC5(C)C4CCC23C)nc2ccccc12` (centres unmarked) [Hybrid 5g] was run?
The IC50 was 3.03 ± 0.24 µg/mL (≈ 4.85 µM).

For `C=CC1CN2CCC1CC2C(O)c1cc(CCC(C)C2CCC3C4CCC5CC(O)CCC5(C)C4CCC23C)nc2ccc(OC)cc12` (centres unmarked) [Hybrid 5c], which IC50 is on record?
Its IC50 is 0.79 ± 0.19 µg/mL (≈ 1.21 µM).

Which IC50 does the source give for `O=C(Cn1ccnc1[N+](=O)[O-])NCc1ccccc1` [Bz, benznidazole, reference compound] here?
Its IC50 is 2.5 ± 0.32 µg/mL (≈ 9.61 µM).
